Converted amounts (≈) assume the structure as drawn.
Key:
[1] = Cytotoxicity in human primary cell cultures (Trypan Blue Staining); format: cell-based; conditions: human, CC50
Method: (1) HFF (human foreskin fibroblast) cells (2×105) were seeded with 2 ml of DMEM medium supplemented with 10% FBS in each well of two 12-well tissue culture plates. (2) Cells were cultured for 3 days. CSA-44 was added to test for cell toxicity. Eleven concentrations were tested: 40 μg/ml, 30 μg/ml, […], 17.5 μg/ml, 15 μg/ml, 12.5 μg/ml, 10 μg/ml, 7.5 μg/ml, 5 μg/ml, 2.5 μg/ml, and 1 μg/ml. Samples with concentration of 0 μg/ml were used as the control. Each concentration was tested in duplicates with two wells. (3) Cells were cultured for 48 hours with CSA-44. Trypan Blue Staining was used to determine the numbers of living and dead cells on a hemocytometer. Percentages of living and dead cells in each sample were calculated.
(1) HFF cells (2×105) were seeded with 2 ml of DMEM medium supplemented with 10% FBS in each well of two 12-well tissue culture plates. (2) Cells were cultured for 3 days. CMA Conjugate was added to test for cell toxicity. Eleven concentrations were tested. They were 100 μg/ml, 80 μg/ml, 60 μg/ml, 50 μg/ml, 40 μg/ml, 30 μg/ml, 25 μg/ml, 20 μg/ml, 15 μg/ml, 10 μg/ml, and 5 μg/ml. Samples with concentration of 0 μg/ml were used as the control. Each concentration was tested in duplicates with two wells. (3) Cells were cultured for 48 hours with CMA Conjugate. […] Percentages of living and dead cells in each sample were calculated.

human coronavirus 229E = assay: Therapeutic activity against human coronavirus 229E in HFF cells; format: cell-based; conditions: Human coronavirus 229E, HFF; added 24 hours post infection, cells cultured for two weeks, cell viability; read-out: EC50
Method: (1) HFF cells (5×104) were seeded with 1 ml of DMEM media supplemented with 10% FBS in each well of four 24-well tissue culture plates. (2) Cell were cultured for 3 days until HFF cells in each well attained 90% confluency (media was changed 1 day before infection). 10 μl of the 10-time diluted original solution of coronavirus, about 1×10^5 PFU were added into each well. Infection was allowed to proceed overnight. (3) The media was changed 24 hours post infection. CSA-44 was added to test their anti-viral effects. Ten different concentrations of the drug were tested. They were 15 μg/ml, 10 μg/ml, 9 μg/ml, 8 μg/ml, 7 μg/ml, 6 μg/ml, 5 μg/ml, 4 μg/ml, 3 μg/ml, and 2 μg/ml with 0 μg/ml as the control. Each concentration has 12 wells for test. Cells were cultured for two weeks, and cell viability was quantified. CSA-44 was effective in inhibiting viral replication and growth. The values of EC50 (where EC is the concentration of the active that gives 50% of the maximal response) of CSA-44 is identified as 4 μg/ml.
(1) HFF cells (5×104) were seeded with 1 ml of DMEM media supplemented with 10% FBS in each well of four 24-well tissue culture plates. (2) Cells were cultured for 3 days until HFF cells in each well attained 90% confluency (media was changed 1 day before infection). Ten μl of the 10-time diluted original solution of coronavirus, about 1×10^5 PFU, were added into each well. Infection was allowed to proceed overnight. (3) The media was changed 24 hours post infection. Different concentrations of CSA-44 were added to test their anti-viral effects. Each concentration has 12 wells for test. Cells were cultured in the presence of CSA-44 for […] and cell viability was quantified.
(1) HFF cells (5×104) were seeded with 1 ml of DMEM media supplemented with 10% FBS in each well of four 24-well tissue culture plates. (2) Cells were cultured for 3 days until HFF cells in each well attained 90% confluency (media was changed 1 day before infection). […] Cells were cultured for two weeks, and cell viability was quantified. […]

Calu-3 cells = assay: Cytotoxicity Assay (MTS); format: cell-based; conditions: 24 h
Method: Calu-3 cells were seeded in 96-well plates one day prior to testing. At 80-90% confluency, growth medium was removed and replaced with a medium containing 50 μg/mL of compound 12 dilutions. All treatments were added in quadruplicate or quintuplicate wells. Plates were incubated for 24 h before being washed and replaced with fresh untreated growth medium. MTS was added to each well as recommended by the manufacturer's protocol (CellTiter 96 Aqueous One Solution Cell Proliferation Assay, Promega, Madison, WI, USA) and incubated for 3-4 h.
After incubation, absorbance was measured at 490 nm on a SpectraMax M5 (Molecular Devices, LLC, San Jose, CA, USA) plate reader with SoftMax Pro 6.2.1 software.

Coronavirus 229E = assay: "Disinfectant" experiments: virus pre-mixed with compound, then added to HFFs; format: cell-based; conditions: Human coronavirus 229E, 0.25 h; mixed with virus 15 minutes at room temperature before adding to HFFs
Method: In the “disinfectant” experiments, stock solution of Compound 12 was generated by dissolving the compound in 10% DMSO solution. Different amounts of Compound 12 from the stock solution were mixed with 10^4 PFU of Coronavirus 229E. After incubation at room temperature for 15 minutes, the mixture of virus and Compound 12 was added to the culture of primary human foreskin fibroblasts (HFFs). At 24 hours post-infection, culture medium was changed and the infected HFFs were further cultured in the absence of Compound 12. The level of inhibition of virus infection and production was determined.

TNF-α = TNF-α production in HEK293 Cells; format: cell-based; conditions: 5 μg/ml
Excerpt: It was confirmed that Compound 12 stimulates TNF-α production in HEK293 Cells.

MRSA = assay: Bactericidal activity MIC/MBC; format: cell-based; conditions: Staphylococcus aureus
Pseudomonas = assay: Bactericidal activity MIC/MBC; format: cell-based; conditions: Gram−
[2] = 7 days, pH 7
Excerpt: Storage stability in buffer was monitored over time of at least 7 days to determine the effect of solution pH and degradation.

in vitro = conditions: human

For `C[C@H](CCC(=O)NCCNC(=O)CCCC[C@@H]1SCC2NC(=O)NC21)C1CCC2C3C(C[C@H](OC(=O)CCN)[C@@]21C)[C@@]1(C)CC[C@@H](OC(=O)CCN)CC1C[C@H]3OC(=O)CCN` (stereo partly drawn) [Compound 12], the CC50 at 48 h [1] was ~65 µg/mL (≈ 73 µM), the EC50 (human coronavirus 229E) was 3 µg/mL (≈ 3.37 µM) and the “IC50 (i.e., CC50)” value (Calu-3 cells) was 154 µM. The EC50 (Coronavirus 229E) was 500 µg/mL (≈ 562 µM), the TNF-α generated (TNF-α) was 7,123 pg/ml and the MBC (MRSA) was 1060 µg/mL (≈ 1190 µM). It also gave an MIC (MRSA) of 530 µg/mL (≈ 595 µM), an MBC (Pseudomonas) of 1060 µg/mL (≈ 1190 µM) and an MIC (Pseudomonas) of 530 µg/mL (≈ 595 µM). For the same compound, the “stability, time” value [2] was “up to 7 days”, the “stable with no degradation, time” value [2] was “at least 7 days” and the CC50 at 3 days (in vitro) was > 200 µM.
